# Where no end group is shown, it is not given here.
# Tested on: Candida albicans (ATCC 10231)
# Test: not given
# Assay type: cell-based
# Conditions: ATCC 10231, 24 h
# Experimental: (§1) The synthetic peptides were also screened for antifungal activity against Candida albicans (ATCC 10231), Aureobasidium pullulans and Rhodotorula sp. (the last two were obtained from Professor Arne Tronsmo, The Norwegian University of Life Sciences, As, Norway). The antifungal assay was performed as previously described (Sperstad, S. V., et al. (2009) Dev. Comp. Immunol. 33, 583-591). Briefly, fungal spores were dissolved in potato dextrose broth (Difco, Lawrence, Kans., USA) to a concentration of 4×10^5 spores/ml. The spores (50 μl) were inoculated on 96-well Nunclon™ microtiter plates containing the synthetic peptides (50 μl) dissolved in MQ-H2O. […] The negative (growth) control consisted of medium and fungal solution. The peptides were tested for activity in concentrations ranging from 100 to 0.1 μM in two-fold serial dilutions. All tests were performed in triplicates.
row,Substance,MIC (μM) C. albicans [µM]
1,"GWWRRTVDKVRNAGRK [HC(1-16), GWWRRTVDKVRNAGRK]",100
2,"GWWARTVAKVRK-NH2 [Peptide R4A, GWWARTVAKVRK-NH2]",25
3,"GWWRRTAAKVRK-NH2 [Peptide V7A, GWWRRTAAKVRK-NH2]",25
4,"GWWRRTVAKVAK-NH2 [Peptide R11A, GWWRRTVAKVAK-NH2]",25
5,"GWWRRTVDKVRNAGRKVAGFASKACGALGH [HC, reference compound]",100
6,"GWWRATVAKVRK-NH2 [Peptide R5A, GWWRATVAKVRK-NH2]",25

# Tested on: Aureobasidium pullulans
# Test: not given
# Assay type: cell-based
# Conditions: 24 h
# Experimental: as §1
row,Substance,MIC (μM) A. pullulans [µM]
1,"GWWRRTVDKVRNAGRK [HC(1-16), GWWRRTVDKVRNAGRK]",50
2,"GWWARTVAKVRK-NH2 [Peptide R4A, GWWARTVAKVRK-NH2]",50
3,"GWWRRTAAKVRK-NH2 [Peptide V7A, GWWRRTAAKVRK-NH2]",25
4,"GWWRRTVAKVAK-NH2 [Peptide R11A, GWWRRTVAKVAK-NH2]",50
5,"GWWRRTVDKVRNAGRKVAGFASKACGALGH [HC, reference compound]",12.5
6,"GWWRATVAKVRK-NH2 [Peptide R5A, GWWRATVAKVRK-NH2]",25

# Tested on: A. pullulans, Rhodotorula sp. and C. albicans
# Test: not given
# Assay type: cell-based
# Conditions: not given
# Experimental: as §1
row,Substance,antifungal MICs (range over the three fungi) [µM]
1,"GWWRRTVAKVRK-NH2 [HC(1-12)A8K12, GWWRRTVAKVRK-NH2]",1.6 to 6.3

# Tested on: Rhodotorula sp.
# Test: not given
# Assay type: cell-based
# Conditions: 24 h
# Experimental: as §1
row,Substance,MIC (μM) Rhodotorula sp. [µM]
1,"GWWRRTVDKVRNAGRK [HC(1-16), GWWRRTVDKVRNAGRK]",25
2,"GWWARTVAKVRK-NH2 [Peptide R4A, GWWARTVAKVRK-NH2]",50
3,"GWWRRTAAKVRK-NH2 [Peptide V7A, GWWRRTAAKVRK-NH2]",12.5
4,"GWWRRTVAKVAK-NH2 [Peptide R11A, GWWRRTVAKVAK-NH2]",12.5
5,"GWWRRTVDKVRNAGRKVAGFASKACGALGH [HC, reference compound]",12.5
6,"GWWRATVAKVRK-NH2 [Peptide R5A, GWWRATVAKVRK-NH2]",12.5

# Tested on: human red blood cells
# Test: Haemolytic assay
# Assay type: cell-based
# Conditions: at concentrations closer to the MIC-values
# Experimental: Selected synthesised peptide analogues were also screened for haemolytic activity using human red blood cells as described previously (Sperstad, S. V., et al. (2009) Dev. Comp. Immunol. 33, 583-591). The assay was performed on 96-well U-shaped microtiter plates (Nagle Nunc) with 50 μl peptide sample, 40 μl phosphate-buffered saline (PBS) and 10 μl red blood cells. After one hour of incubation at 37° C. in a shaker, the plate was centrifuged at 200 g for 5 min and the supernatants (60 μl) were carefully transferred to a new flat-bottomed polycarbonate microtiter plate (Nagle Nunc) and the release of haemoglobin (absorbance at 550 nm) was measured on a Synergy H1 multimode reader (BioTek, Vt., USA). Cell suspension added 0.05% Triton X-100 (Sigma-Aldrich, Mo., USA) in PBS served as positive (100% haemolysis) control and cell suspension added PBS served as negative (0% haemolysis, blank) control. The percent haemolysis was calculated using the formula [(Asample-Abaseline)/(Atriton-Abaseline)]×100. The cytotoxic peptide melittin (Sigma-Aldrich) was used as a positive control peptide and for comparison. The experiment was performed in triplicates with peptide concentrations ranging from 200 μM to 1.56 μM in two-fold dilutions.
row,Substance,haemolytic activity
1,"GWWRRTVAKVRK-NH2 [HC(1-12)A8K12, GWWRRTVAKVRK-NH2]",negligible

# Same assay, conditions: peptide 25 μM, human red blood cells, one hour at 37° C.
row,Substance,Haemolysis (%) 25 μM [%]
1,"GWWRRTVDKVRNAGRK [HC(1-16), GWWRRTVDKVRNAGRK]",0.0
2,"GWWARTVAKVRK-NH2 [Peptide R4A, GWWARTVAKVRK-NH2]",0.0
3,"GWWRRTAAKVRK-NH2 [Peptide V7A, GWWRRTAAKVRK-NH2]",0.0
4,"GWWRRTVAKVAK-NH2 [Peptide R11A, GWWRRTVAKVAK-NH2]",0.0
5,"GWWRRTVDKVRNAGRKVAGFASKACGALGH [HC, reference compound]",13.5
6,"GWWRATVAKVRK-NH2 [Peptide R5A, GWWRATVAKVRK-NH2]",0.0
7,"GWWRRTVAKVRK-NH2 [HC(1-12)A8K12, GWWRRTVAKVRK-NH2]",2.4

# Same assay, conditions: peptide 200 μM, human red blood cells, one hour at 37° C.
row,Substance,Haemolysis (%) 200 μM [%]
1,"GWWRRTVDKVRNAGRK [HC(1-16), GWWRRTVDKVRNAGRK]",0.0
2,"GWWARTVAKVRK-NH2 [Peptide R4A, GWWARTVAKVRK-NH2]",3.6
3,"GWWRRTAAKVRK-NH2 [Peptide V7A, GWWRRTAAKVRK-NH2]",0.0
4,"GWWRRTVAKVAK-NH2 [Peptide R11A, GWWRRTVAKVAK-NH2]",0.0
5,"GWWRRTVDKVRNAGRKVAGFASKACGALGH [HC, reference compound]",74.6
6,"GWWRATVAKVRK-NH2 [Peptide R5A, GWWRATVAKVRK-NH2]",0.0
7,"GWWRRTVAKVRK-NH2 [HC(1-12)A8K12, GWWRRTVAKVRK-NH2]",25.1

# Same assay, conditions: peptide 200 μM, human red blood cells, one hour at 37° C.; listed as full HC
row,Substance,Haemolysis (%) 200 μM [%]
1,"GWWRRTVDKVRNAGRKVAGFASKACGALGH [HC, reference compound]",75

# Same assay, conditions: peptide 200 μM, human red blood cells, one hour at 37° C.; listed as lead peptide
row,Substance,Haemolysis (%) 200 μM [%]
1,"GWWRRTVAKVRK-NH2 [HC(1-12)A8K12, GWWRRTVAKVRK-NH2]",25

# Tested on: Pseudomonas aeruginosa (Pa, ATCC 27853)
# Test: not given
# Assay type: cell-based
# Conditions: ATCC 27853
# Experimental: (§2) The peptides were screened for antibacterial activity against two strains of Gram-positive and two strains of Gram-negative bacteria; Corynebacterium glutamicum (Cg, ATCC 13032), Staphylococcus aureus (Sa, ATCC 9144), Pseudomonas aeruginosa (Pa, ATCC 27853) and Escherichia coli (Ec, ATCC 25922).
# (§3) Cultures stored at −80° C. in glycerol were transferred to Müller-Hinton plates (MH, Difco, Lawrence, Kans., USA) and incubated for 24 h at 35° C. A few colonies of each bacterial strain were transferred to 5 ml liquid MH medium and left shaking at room temperature overnight at 600 rpm. Cultures of actively growing bacteria (20 μl) were inoculated in 5 ml MH medium and left shaking for 2 h at room temperature. The antibacterial assays were performed as previously described by Sperstad, S. V., et al. ((2009) Mol. Immunol. 46, 2604-2612) with the following exception: bacterial cultures were diluted with medium to 2.5-3×10^4 bacteria/ml concentrations. An aliquot of 50 μl (1250-1500 bacterial cells) was added to each well in 96-well Nunclon™ microtiter plates (Nagle Nunc Int., Denmark) preloaded with peptide solution (50 μl).
# (§4) The microtiter plates were incubated for 24 h at 35° C. with optical density recorded every hour using an Envision 2103 multilabel reader, controlled by a Wallac Envision manager (PerkinElmer, Conn., USA). Minimum inhibitory concentration (MIC) was defined as a sample showing complete inhibition (as measured by optical density at 595 nm) compared to the negative (growth) controls, consisting of bacteria and water. Oxytetracycline (20 μM) served as a positive (inhibition) control.
# (§5) The synthetic peptides were tested for antibacterial activity in concentrations ranging from 200 to 0.1 μM in two-fold dilutions. All tests were performed in triplicates.
row,Substance,MIC (μM) Pa [µM]
1,"GWWRRTVAKVRK-NH2 [HC(1-12)A8K12, GWWRRTVAKVRK-NH2]",6.3

# Same assay, conditions: ATCC 27853, 24 h
row,Substance,MIC (μM) Pa [µM]
1,"GWWRRTVDKVRNAGRK [HC(1-16), GWWRRTVDKVRNAGRK]",12.5
2,"GWWARTVAKVRK-NH2 [Peptide R4A, GWWARTVAKVRK-NH2]",12.5
3,"GWWRRTAAKVRK-NH2 [Peptide V7A, GWWRRTAAKVRK-NH2]",12.5
4,"GWWRRTVAKVAK-NH2 [Peptide R11A, GWWRRTVAKVAK-NH2]",12.5
5,"GWWRRTVDKVRNAGRKVAGFASKACGALGH [HC, reference compound]",1.6
6,"GWWRATVAKVRK-NH2 [Peptide R5A, GWWRATVAKVRK-NH2]",25
7,"GWWRRTVAKVRK-NH2 [HC(1-12)A8K12, GWWRRTVAKVRK-NH2]",3.1

# Tested on: Escherichia coli (Ec, ATCC 25922)
# Test: not given
# Assay type: cell-based
# Conditions: ATCC 25922
# Experimental: as §2, §3, §4, §5
row,Substance,MIC (μM) Ec [µM]
1,"GWWRRTVAKVRK-NH2 [HC(1-12)A8K12, GWWRRTVAKVRK-NH2]",6.3

# Same assay, conditions: ATCC 25922, 24 h
row,Substance,MIC (μM) Ec [µM]
1,"GWWRRTVDKVRNAGRK [HC(1-16), GWWRRTVDKVRNAGRK]",6.3
2,"GWWARTVAKVRK-NH2 [Peptide R4A, GWWARTVAKVRK-NH2]",6.3
3,"GWWRRTAAKVRK-NH2 [Peptide V7A, GWWRRTAAKVRK-NH2]",12.5
4,"GWWRRTVAKVAK-NH2 [Peptide R11A, GWWRRTVAKVAK-NH2]",12.5
5,"GWWRRTVDKVRNAGRKVAGFASKACGALGH [HC, reference compound]",0.8
6,"GWWRATVAKVRK-NH2 [Peptide R5A, GWWRATVAKVRK-NH2]",6.3
7,"GWWRRTVAKVRK-NH2 [HC(1-12)A8K12, GWWRRTVAKVRK-NH2]",6.3

# Tested on: Staphylococcus aureus (Sa, ATCC 9144)
# Test: not given
# Assay type: cell-based
# Conditions: ATCC 9144
# Experimental: as §2, §3, §4, §5
row,Substance,MIC (μM) Sa [µM]
1,"GWWRRTVAKVRK-NH2 [HC(1-12)A8K12, GWWRRTVAKVRK-NH2]",6.3

# Same assay, conditions: ATCC 9144, 24 h
row,Substance,MIC (μM) Sa [µM]
1,"GWWRRTVDKVRNAGRK [HC(1-16), GWWRRTVDKVRNAGRK]",200
2,"GWWARTVAKVRK-NH2 [Peptide R4A, GWWARTVAKVRK-NH2]",50
3,"GWWRRTAAKVRK-NH2 [Peptide V7A, GWWRRTAAKVRK-NH2]",100
4,"GWWRRTVAKVAK-NH2 [Peptide R11A, GWWRRTVAKVAK-NH2]",100
5,"GWWRRTVDKVRNAGRKVAGFASKACGALGH [HC, reference compound]",3.1
6,"GWWRATVAKVRK-NH2 [Peptide R5A, GWWRATVAKVRK-NH2]",100
7,"GWWRRTVAKVRK-NH2 [HC(1-12)A8K12, GWWRRTVAKVRK-NH2]",25

# Tested on: Corynebacterium glutamicum (Cg, ATCC 13032)
# Test: not given
# Assay type: cell-based
# Conditions: ATCC 13032
# Experimental: as §2, §3, §4, §5
row,Substance,MIC (μM) Cg [µM]
1,"GWWRRTVAKVRK-NH2 [HC(1-12)A8K12, GWWRRTVAKVRK-NH2]",0.4

# Same assay, conditions: ATCC 13032, 24 h
row,Substance,MIC (μM) Cg [µM]
1,"GWWRRTVDKVRNAGRK [HC(1-16), GWWRRTVDKVRNAGRK]",0.8
2,"GWWARTVAKVRK-NH2 [Peptide R4A, GWWARTVAKVRK-NH2]",1.6
3,"GWWRRTAAKVRK-NH2 [Peptide V7A, GWWRRTAAKVRK-NH2]",1.6
4,"GWWRRTVAKVAK-NH2 [Peptide R11A, GWWRRTVAKVAK-NH2]",1.6
5,"GWWRRTVDKVRNAGRKVAGFASKACGALGH [HC, reference compound]",0.4
6,"GWWRATVAKVRK-NH2 [Peptide R5A, GWWRATVAKVRK-NH2]",0.8

# From US20200071357A1, “ANTIMICROBIAL PEPTIDES” (UNIVERSITETET I TROMSØ - NORGES ARKTISKE UNIVERSITET, priority 2016, published 2020)
